Test results published in patent US20250381198A1 (Melt Pharmaceuticals, Inc., priority 2024, published 2025).

What was measured:
[1] = Phase 1 crossover relative bioavailability study: plasma pharmacokinetics of midazolam, 1-hydroxymidazolam, ketamine and norketamine
Protocol: PK analysis was performed using noncompartmental methods in Phoenix WinNonlin® (Version 8.1, Certara, L.P.) in conjunction with the internet-accessible implementation of the Pharsight® Knowledgebase Server™ (PKSO; Version 4.0.4, Certara, L.P). PKSO provides protected and structured storage, audit trails, and version control for study data, analyses, and related files, supporting 21 CFR Part 11 compliance. The analysis was performed in accordance with the Statistical Analysis Plan (Version 1.0, 5 Jan. 2021).
During the PK analysis, concentrations below the limit of quantitation (BLQ) up to the time of the first quantifiable concentration were treated as zero. Embedded (values between 2 quantifiable concentrations) and terminal BLQ concentrations were treated as “missing”. Calculation of the PK characteristics were based on actual elapsed times [h] (relative to time of dose).
All PK analyses were performed on the data from the PK Analysis Population. […] The ANOVA model included factors for sequence, subject within sequence, treatment, and period.

[2] = test system: subjects undergoing cataract extraction with lens replacement (CELR); experiment: Phase 2: subjects completing the surgery (and without interruption); assay type: in vivo, human; conditions: Visit 2 (Day 1); Full Analysis Set
Protocol: (§1) The number of subjects achieving analgesia response (observed) in the full analysis set was determined. Success in analgesia response was defined as NPRS<4 at the available at the available four intraoperative timepoints and a failure otherwise (e.g., any interoperative pain rescue was assumed to be a failure. Results are provided in TABLE 25. The number of subjects completing the surgery is provided in TABLE 26, and the number of subjects completing the surgery without interruption is provided in TABLE 27. For this measure, subjects completing the surgery without interruption (other than rescue medication) due to pain or anxiety were considered successes. The number of subjects requiring rescue sedative medication and those requiring analgesic medication are provided in TABLES 28 and 29, respectively. For all TABLES 25-29, p-Values between pairs of treatments were calculated and are provided.

healthy adult subjects [3] = experiment: Phase 1 safety: adverse events, vital signs, laboratory values, ECG, oral cavity examination, neurocognitive assessment (SPMSQ); assay type: in vivo, human; conditions: for Mean changes from baseline in systolic and diastolic blood pressures: MELT-100 3/25 mg and 6/25 mg, each timepoint
Protocol: The Investigator evaluated safety using physical and oral examinations, O2 saturation (SpO2), vital sign measurements, clinical laboratory evaluations, electrocardiograms (ECGs), reported or observed adverse events (AEs), and assessments of neurocognitive function. Subjects were monitored for any AEs from the first dose through the end of the study.
All safety analyses were performed on data from the Safety Population. All quantitative safety data were tabulated with descriptive summary statistics, including the following: arithmetic mean, SD, median, minimum value, maximum values, and number of non-missing observations (n).
Frequency counts and percentage were provided for categorical data. Data were summarized by treatment sequence, treatment, and/or overall, as applicable. All observed baseline/predose and postdose values were summarized by treatment when data were available. Additionally, the corresponding change from baseline/predose assessment to each postdose assessment were also summarized by treatment. All tabulations involving change from baseline/predose comparisons included only those subjects with data at both the baseline/predose and postdose assessments.
Adverse events were coded using the Medical Dictionary for Regulatory Activities (MedDRA, version 22.0, or later) terms and summarized by system organ class (SOC) and preferred term (PT) within SOC. The number and percentage of subjects reporting TEAEs were summarized by reported SOC and PT for each treatment and the population overall. TEAEs were also summarized by maximum severity and nearest relationship to study drug, by SOC and PT for each treatment.
A by-subject AE (including treatment-emergent) data listing, including but not limited to verbatim term, SOC, PT, severity, and relationship to study treatment, was provided. Deaths, SAEs, and other significant AEs, including those leading to early termination of study treatments were listed.
Vital signs, clinical laboratory values (hematology, serum chemistry, and urinalysis), and 12-lead ECG parameters were summarized by treatment including any abnormal values flagged.
Physical examination and oral cavity examination data at each evaluation were listed. […] Weight and height were summarized. Neurocognitive assessments for each evaluation were listed.

[4] = test system: subjects undergoing cataract extraction with lens replacement (CELR); experiment: Phase 2 MELT-300: subjects achieving procedural sedation (RSS level 2 or 3 without rescue); assay type: in vivo, human; conditions: for Subjects who achieved target sedation: Full analysis set, MELT-300, 3 mg midazolam alone, 50 mg ketamine alone, sublingual; for Subjects achieving procedural sedation: No / Subjects achieving procedural sedation: Yes: Visit 2 (Day 1), Full Analysis Set, single sublingual tablet (MELT-300; midazolam 3 mg; ketamine 50 mg)
Protocol: Achievement of procedural sedation was evaluated for each subject (see TABLE 20). Success for procedural sedation for this Phase 2 study was defined as achieving target sedation level (Ramsay Sedation Scale (RSS) scale level 2 or 3) at the start of surgery without the need for rescue sedation medication, and no need for intraoperative rescue sedation medication to maintain target sedation level.

[5] = test system: subjects undergoing cataract extraction with lens replacement (CELR); experiment: Phase 2: subjects achieving analgesia response (NPRS < 4); assay type: in vivo, human; conditions: Full Analysis Set; for Subjects achieving analgesia response (observed): Yes: NPRS < 4 at the available four intraoperative timepoints
Protocol: as §1

healthy adult subjects [6] = experiment: Phase 1 pharmacodynamics: sedation by Ramsay sedation scale (RSS); assay type: in vivo, human; conditions: for Subjects with RSS score of 2: 5 minutes after administration
Protocol: Pharmacodynamic parameters included sedation, defined as time to onset of sedation and sedation level, assessed using the Ramsay sedation scale (RSS), and cardiodynamics assessed by QTcF, heart rate, and PR and QRS intervals, and T-wave morphology and U-wave presence, extracted from ECGs collected via Holter monitor from predose through 24 hours postdose.
All pharmacodynamic analyses were performed on data from the Safety Population. The RSS scores were summarized by treatment and by timepoint. Time to onset of sedation was summarized by treatment and presented graphically.

[7] = Treatment C: midazolam IV 3.5 mg, fasted
[8] = midazolam 3.5 mg IV, ketamine 18 mg IV
[9] = Treatment D: ketamine IV 18 mg, fasted
[10] = 5-minute postdose timepoint, ketamine 18 mg IV

Structure (SMILES) | Subjects completing the surgery: No [2] | Subjects completing the surgery: Yes [2] | Mean changes from baseline in systolic and diastolic blood pressures (healthy adult subjects [3]; [8]) | Subjects who achieved target sedation [4] | Subjects achieving procedural sedation: No [4] | Subjects achieving procedural sedation: Yes [4] | Subjects achieving analgesia response (observed): No [5] | Subjects achieving analgesia response (observed): Yes [5] | Subjects with RSS score of 2 (healthy adult subjects [6]; [8]) | Highest proportion of subjects with RSS scores >2 postdose (healthy adult subjects [6]; [8]) | also measured
Cc1ncc2n1-c1ccc(Cl)cc1C(c1ccccc1F)=NC2 [Midazolam, 8-chloro-6-(2-fluorophenyl)-1-methyl-4H-imidazo[1,5-a][1,4]benzodiazepine] | 0 (0) n (%) | 81 (100.0) n (%) | minimal and similar | 64.2% | 29 (35.8) n (%) | 52 (64.2) n (%) | 48 (59.3) n (%) | 33 (40.7) n (%) | 91.7% | ~54% | Midazolam AUCExtrap, mean [1, 7]: 5.58%; Midazolam Clast, mean [1, 7]: 0.963 ng/mL; PR duration (one subject) (healthy adult subjects [3]; 24 hours after midazolam 3.5 mg IV in Period 4, not considered clinically significant): abnormal; Subjects with treatment-related AEs (healthy adult subjects [3]; midazolam 3.5 mg IV): 8.3%; Treatment-related AEs, number of events (healthy adult subjects [3]; midazolam 3.5 mg IV): 2 events; Mean change from baseline in pulse oximetry (healthy adult subjects [3]; midazolam 3.5 mg IV at 10-minute postdose, MELT-100 6/50 mg at 30-minute postdose): small mean decrease from baseline; Subjects with RSS scores of 3 (healthy adult subjects [6]; 5-minute postdose timepoint, midazolam 3.5 mg IV): 8.3%
CNC1(c2ccccc2Cl)CCCCC1=O (centres unmarked) [Ketamine, 2-(2-chlorophenyl)-2-(methylamino)cyclohexanone] | 0 (0) n (%) | 79 (100.0) n (%) | highest at the 10-minute timepoint | 63.3% | 29 (36.7) n (%) | 50 (63.3) n (%) | 40 (50.6) n (%) | 39 (49.4) n (%) | 92.0% | ~8% | Ketamine AUCExtrap, mean [1, 9]: 9.64%; Ketamine Clast, mean [1, 9]: 1.99 ng/mL; Ketamine Tlast, mean [1, 9]: 23.7 h; Ketamine Vz, mean [1, 9]: 867 L; clearance ([1]; human, plasma, iv, 18 mg): 998 mL/min; Treatment-related AEs of hypertension, number (healthy adult subjects [3]; ketamine 18 mg IV): 3; Subjects with RSS score of 1 (healthy adult subjects [6]; [10]): 4.0%; Subjects with RSS score of 5 (healthy adult subjects [6]; [10]): 4.0%
